Test results published in patent publication US20200016188A1, “MODIFICATION OF THE PH AND OTHER PHYSICAL PROPERTIES OF NICOTINAMIDE ADENINE DINUCLEOTIDE (OXIDIZED FORM) TO ALLOW FOR ENHANCED STABILITY AND MULTIPLE DELIVERY SYSTEMS” (priority 2018, published 2020).
Entries after “also recorded” stand apart in the source; their conditions may differ. Like-named read-outs stand apart in the source and are kept apart here.

What was measured:
[1] = pH testing of test substances (pH strips, probe and meter); assay type: physicochemical
Experimental: PH testing was done by using both pH testing strips and a probe and meter for each test substance to determine its pH. Each test substance was dissolved in 150 ml distilled water then tested for its pH value. Where the test substance could not be tested because it was not water soluble, an art-recognized pH was used.
PH testing was done by using both ph testing strips and a probe and meter for each test substance to determine its pH. Each test substance was dissolved in 150 ml distilled water then tested for its pH value.

[2] = not tested, cited from earlier work; for (pH): Table 6, too viscous
[3] = Two-week stability of compressed lozenge of NAD+ with a test substance, HPLC UV; conditions: for Observation when the composition was made: NAD+ with test substance, HPLC data could not be obtained
Experimental: Preparations of nicotinamide adenine dinucleotide (oxidized form) were compounded. A compressed lozenge was created including 100 mg nicotinamide adenine dinucleotide (oxidized form) and 100 mg of a test substance. The powders were compressed in a tablet mold and released. Each test tablet was then placed in a white 75cc HDPE container that was sealed and removed from UV light for two weeks at room temperature.
After a two week period, the compositions were tested by performing an HPLC UV.

[4] = cited from earlier work
[5] = anhydrous NAD+ with test substance, two weeks, HPLC UV versus NAD+ control
[6] = Table 5, test substance dissolved in 150 ml distilled water

For OC[C@@H](O)[C@@H](O)[C@H](O)[C@@H](O)CO [70% Sorbitol, Sorbitol], the “(pH) Value” ([1]; summary of Table 6) is given as “neutral” and the “(pH)” value [2] is given as “(pH) neutral”.

For CCCCCCCCCCCCCCCC(=O)OC[C@H](O)[C@H]1OC(=O)C(O)=C1O [Ascorbyl palmitate], the pH range ([2]; Table 5, not water soluble, art-recognized pH) is given as “(pH) range 6.8-7.2”.

With OCc1ccccc1 [Benzyl alcohol] the “(pH) Value” ([1]; Table 6, test substance in 150 ml distilled water) was 6.9 and the “(pH) Value” ([1]; summary of Table 6) was “neutral”.

In the case of O=P([O-])([O-])O.[Ca+2] [Calcium Phosphate Dibasic, Calcium phosphate dibasic], the “Degradation of NAD+ when formulated with the test substance by itself (words)” value (“Degradation of NAD+ when formulated” below) [3, 5] is reported as “did not degrade the NAD+; also recorded: little to no degradation; also recorded: do not degrade NAD+”, the “Degradation of NAD+ when formulated” value ([3]; anhydrous NAD+ with test substance, two weeks, HPLC UV versus NAD+ control, listed as CaHPO4) is reported as “deemed effective” and the “(pH) Value” [1, 6] is reported as 8.5.

In the case of OC[C@@H](O)[C@@H](O)CO [Erythitol, Erythritol], the “(pH) Value” [1, 6] is reported as 6.3.

For OCC(O)CO [Glycerin], the “(pH) Value” ([1]; summary of Table 6) is listed as “neutral” and the “(pH)” value [2] is listed as “(pH) neutral”.

In the case of [Mg+2].[OH-].[OH-] [Magnesium Hydroxide Mg(OH)2, Magnesium hydroxide], the “Degradation of NAD+ when formulated” value ([3]; anhydrous NAD+ with test substance, two weeks, HPLC UV versus NAD+ control, listed as Mg(OH)2) is reported as “deemed effective” and the “Degradation of NAD+ when formulated” value ([3]; anhydrous NAD+ with test substance, two weeks, HPLC UV versus NAD+ control, listed as magnesium hydroxide) is reported as “do not degrade NAD+; also recorded: provided for stable compositions of NAD+”.

In the case of [O]=[Mg] [Magnesium Oxide MgO, Magnesium oxide], the “Degradation of NAD+ when formulated” value [3, 5] is reported as “cause degradation of the NAD+” and the “(pH) Value” [1, 6] is reported as 9.1.

For O=C([O-])[O-].[Mg+2] [Magnesium carbonate MgCO2, Magnesium carbonate], the “Degradation of NAD+ when formulated” value [3, 5] was “did not degrade the NAD+; also recorded: little to no degradation; also recorded: do not degrade NAD+”.

For OC[C@@H](O)[C@@H](O)[C@H](O)[C@H](O)CO [Mannitol], the “(pH) Value” [1, 6] was 6.7.

For NC(=O)c1ccc[n+]([C@@H]2O[C@H](COP(=O)([O-])OP(=O)(O)OC[C@H]3O[C@@H](n4cnc5c(N)ncnc54)[C@H](O)[C@@H]3O)[C@@H](O)[C@H]2O)c1 [NAD+, nicotinamide adenine dinucleotide (oxidized form)], the “Time NAD+ can be stable” value ([4]; aqueous solutions between pH 2-6, stored at −70° C.) is given as “up to 6 months”, the “Time NAD+ is stable” value ([4]; fairly neutral aqueous solutions at 0° C.) is given as “up to 2 weeks” and the “Time the stability of NAD+ will last” value ([4]; neutral or slightly acidic solutions stored at zero degrees Fahrenheit) is given as “up to 2 weeks”.

For O=C([O-])O.[K+] [Potassium Bicarbonate K2CO2, Potassium bicarbonate], the “Degradation of NAD+ when formulated” value [3, 5] was “cause degradation of the NAD+”.

For [K+].[OH-] [Potassium Hydroxide KOH, Potassium hydroxide], the “Observation when the composition was made” value [3] was “bubbled, liquefied, turned yellow, and created heat” and the “Degradation of NAD+ when formulated” value [3, 5] was “cause degradation of the NAD+”.

For O=C([O-])O.[Na+] [Sodium Bicarbonate Na2CO2, Sodium bicarbonate], the “Degradation of NAD+ when formulated” value [3, 5] was “showed degradation shortly after creation of the lozenge tablet; also recorded: cause degradation of the NAD+”.

In the case of [Cl-].[Na+] [Sodium Chloride NaCl, Sodium chloride], the “Degradation of NAD+ when formulated” value [3, 5] is reported as “positive results; also recorded: do not degrade NAD+”.

With O=C1O[C@H]([C@@H](O)CO)C([O-])=C1O.[Na+] [Sodium ascorbate] the “Degradation of NAD+ when formulated” value [3, 5] was “positive results” and the “Degradation of NAD+ when formulated” value ([3]; anhydrous NAD+ with test substance, two weeks, HPLC UV versus NAD+ control, listed as sodium ascorbate) was “do not degrade NAD+”.

In the case of CCCCCCCCCCCCCCCCCC(=O)O [Stearic acid], the “Degradation of NAD+ when formulated” value [3] is reported as “cause degradation of the NAD+”.

In the case of CC(=O)Oc1c(C)c(C)c2c(c1C)CCC(C)(CCC[C@H](C)CCC[C@H](C)CCCC(C)C)O2 (some centres unmarked) [Tocopherol acetates, Tocopherol acetate], the “(pH) Value” ([1]; summary of Table 6) is given as “neutral” and the “(pH)” value [2] is given as “(pH) neutral”.

For OC[C@@H](O)[C@H](O)[C@@H](O)CO [Xylitol], the “(pH) Value” [1, 6] was 6.5.

With Magnesium stearate the “Degradation of NAD+ when formulated” value [3, 5] was “cause degradation of the NAD+”.

For Polysorbate 80, the “(pH) Value” ([1]; summary of Table 6) is listed as “neutral” and the “(pH)” value [2] is listed as “(pH) neutral”.

In the case of “Sodium hydroxide [Sodium Hydroxide NaOH]”, the “Observation when the composition was made” value [3] is reported as “bubbled, liquefied, turned yellow, and created heat”.
